Reference: patent US4311694A, “Amorphous coprecipitates of 4-(monoalkylamino) benzoic acid and derivatives and certain water-soluble materials” (priority 1979, dated 1982)

What was measured:
physchem = type: physicochemical; settings: water, drug alone, read-out: soluble in water
[1] = Comparative water solubility of precipitates (Example 4); type: physicochemical; settings: 1 mg./ml. of drug

For CCCCCCCCCCCCCCCCNc1ccc(C(=O)[O-])cc1.[Na+], the solubility (physchem) was 1 µg/mL, the “% p-Hexadecylaminobenzoic acid Sodium Salt in Solution, After 1 minute” value ([1]; 1 minute) was 4% and the “% p-Hexadecylaminobenzoic acid Sodium Salt in Solution, After 30 minutes” value ([1]; 30 minutes) was 2%.
